Test results: US8106073B2, “Quinoline derivatives 057” (AstraZeneca AB, priority 2007, dated 2012)
Like-named read-outs stand apart in the source and are kept apart here.

Legend:
P2X7 receptor = biological target: T1, P2X7 receptor (Homo sapiens, UniProt Q99572); assay: P2X7 assay (bbATP-induced ethidium bromide fluorescence in THP-1 cells); assay type: cell-based
T1 construct: 200 μl of a suspension of THP-1 cells; endogenous in cells; host or cells: THP-1 cells
T1 sequence (Q99572 1-595): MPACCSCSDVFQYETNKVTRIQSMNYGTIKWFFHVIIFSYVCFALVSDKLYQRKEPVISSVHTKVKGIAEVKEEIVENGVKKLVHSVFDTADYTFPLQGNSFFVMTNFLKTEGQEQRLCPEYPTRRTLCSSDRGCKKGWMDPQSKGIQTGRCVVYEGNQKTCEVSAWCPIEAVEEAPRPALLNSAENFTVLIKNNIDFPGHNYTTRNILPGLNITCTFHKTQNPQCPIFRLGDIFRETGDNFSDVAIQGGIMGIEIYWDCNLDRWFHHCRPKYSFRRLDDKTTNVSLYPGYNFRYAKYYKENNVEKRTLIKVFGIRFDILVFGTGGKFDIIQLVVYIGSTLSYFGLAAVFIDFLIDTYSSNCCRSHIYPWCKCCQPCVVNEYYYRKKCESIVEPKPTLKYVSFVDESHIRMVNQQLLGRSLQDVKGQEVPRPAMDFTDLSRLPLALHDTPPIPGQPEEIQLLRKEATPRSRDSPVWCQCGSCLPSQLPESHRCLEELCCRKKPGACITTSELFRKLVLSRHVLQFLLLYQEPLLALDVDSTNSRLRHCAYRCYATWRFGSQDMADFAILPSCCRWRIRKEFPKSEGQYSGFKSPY
From the text: Certain compounds such as benzoylbenzoyl adenosine triphosphate (bbATP) are known to be agonists of the P2X7 receptor, effecting the formation of pores in the plasma membrane (Drug Development Research (1996), 37(3), p. 126). Consequently, when the receptor is activated using bbATP in the presence of ethidium bromide (a fluorescent DNA probe), an increase in the fluorescence of intracellular DNA-bound ethidium bromide is observed. The increase in fluorescence can be used as a measure of P2X7 receptor activation and therefore to quantify the effect of a compound on the P2X7 receptor.
In this manner, the compound of the invention was tested for antagonist activity at the P2X7 receptor. Thus, the test was performed in 96-well flat bottomed microtitre plates, the wells being filled with 250 μl of test solution comprising 200 μl of a suspension of THP-1 cells (2.5×10^6 cells/ml) containing 10^−4M ethidium bromide, 25 μl of a high potassium buffer solution containing 10^−5M bbATP, and 25 μl of the high potassium buffer solution containing concentrations of test compound typically from 30 μM-0.001 μM. The plate was covered with a plastic sheet and incubated at 37° C. for one hour. The plate was then read in a Perkin-Elmer fluorescent plate reader, excitation 520 nm, emission 595 nm, slit widths: Ex 15 nm, Em 20 nm. […]

hERG = biological target: T2, hERG (Homo sapiens, UniProt Q12809); assay: hERG binding protocol (radioligand competition, HEK cell membranes expressing hERG); conditions: human, HEK cell membranes expressing hERG, pH 7.4; highest concentration tested
T2 construct: expressed in transfected cells; host or cells: HEK (human embryonic kidney) cells, membranes
T2 sequence (Q12809 whole entry): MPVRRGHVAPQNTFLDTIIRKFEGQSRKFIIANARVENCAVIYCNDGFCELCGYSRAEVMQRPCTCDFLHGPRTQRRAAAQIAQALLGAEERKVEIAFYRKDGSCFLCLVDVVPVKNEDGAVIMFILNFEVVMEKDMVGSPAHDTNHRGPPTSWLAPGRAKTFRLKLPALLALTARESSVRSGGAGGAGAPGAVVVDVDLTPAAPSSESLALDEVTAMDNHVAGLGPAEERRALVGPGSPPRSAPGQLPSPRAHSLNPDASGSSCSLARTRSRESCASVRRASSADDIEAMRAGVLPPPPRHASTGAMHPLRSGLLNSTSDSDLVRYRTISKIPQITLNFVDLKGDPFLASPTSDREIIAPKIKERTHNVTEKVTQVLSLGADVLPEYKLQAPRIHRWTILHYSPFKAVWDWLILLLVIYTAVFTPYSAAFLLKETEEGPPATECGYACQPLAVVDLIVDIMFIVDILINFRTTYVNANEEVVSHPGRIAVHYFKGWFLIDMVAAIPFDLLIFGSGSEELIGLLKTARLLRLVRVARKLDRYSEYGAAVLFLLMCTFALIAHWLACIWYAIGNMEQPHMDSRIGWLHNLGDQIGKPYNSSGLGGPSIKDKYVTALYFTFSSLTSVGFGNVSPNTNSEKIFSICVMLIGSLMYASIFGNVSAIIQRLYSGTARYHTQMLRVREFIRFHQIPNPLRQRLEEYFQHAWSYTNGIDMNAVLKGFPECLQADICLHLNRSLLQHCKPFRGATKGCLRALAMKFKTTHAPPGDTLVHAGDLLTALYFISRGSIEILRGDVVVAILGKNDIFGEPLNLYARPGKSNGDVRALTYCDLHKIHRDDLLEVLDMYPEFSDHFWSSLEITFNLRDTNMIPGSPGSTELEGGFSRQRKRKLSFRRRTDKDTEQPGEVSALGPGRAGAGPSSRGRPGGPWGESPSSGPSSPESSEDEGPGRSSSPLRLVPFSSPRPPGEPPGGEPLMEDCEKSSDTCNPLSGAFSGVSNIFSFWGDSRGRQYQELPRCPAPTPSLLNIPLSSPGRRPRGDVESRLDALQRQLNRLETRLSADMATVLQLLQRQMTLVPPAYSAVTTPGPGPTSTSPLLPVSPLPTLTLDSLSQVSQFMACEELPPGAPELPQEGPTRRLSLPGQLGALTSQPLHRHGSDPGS
Experimental: (§1) The hERG assay was performed according to the procedure described in WO2005/037052. The affinity (pIC50) of compounds for the ion channel subunit encoded by the human ether-a-go-go-related gene (hERG) gene was determined by competition binding of radioligand 3,7-Bis[2-(4-nitro[3,5-^3H]phenyl)ethyl]-3,7-diazabicyclo[3.3.1]nonane to HEK (human embryonic kidney) cell membranes expressing hERG, in a filter wash format.
(§2) Membranes were incubated for 3 hours at room temperature with serial dilutions of the test compounds, radioligand 3,7-Bis[2-(4-nitro[3, 5-3H]phenyl)ethyl]-3,7-diazabicyclo[3.3.1]nonane at 1 nM final concentration, and assay buffer (10 mM HEPES, 130 mM NaCl, 5 mM KCl, 1 mM EGTA, 0.8 mM MgCl2, pH 7.4). The assay was conducted in a final volume of 200 μL, in the presence of 1% (v/v) dimethyl sulphoxide. Non-specific binding was determined by measuring the binding of 3,7-Bis[2-(4-nitro[3,5-^3H]phenyl)ethyl]-3,7-diazabicyclo[3.3.1]nonane in the presence of 10 μM astemizole. During this incubation GF/B filter plates were immersed in coating solution 0.3% (v/v) Polyethylenimine and 0.2% (w/v) BSA). Following incubation assay plates were harvested onto precoated GF/B filter plates using a Tomtec harvester.
(§3) The pIC50, defined as the negative logarithm of the concentration of compound required for 50% reduction in 3,7-Bis[2-(4-nitro[3,5-^3H]phenyl)ethyl]-3,7-diazabicyclo[3.3.1]nonane binding, was determined. A ‘less than’ FIGURE indicates <50% inhibition at the quoted concentration, this being the highest concentration tested.

[1] = biological target: T3, ion channel subunit encoded by the human ether-a-go-go-related gene (hERG) (Homo sapiens, UniProt Q12809); assay: as above; conditions: for P2X7:hERG Ratio: ratio of P2X7:hERG affinity
T3 construct: expressed in transfected cells; host or cells: HEK (human embryonic kidney) cells, membranes
T3 sequence (Q12809 whole entry): as above
Experimental: as §1, §2, §3

Bioavailability - Rat PK = assay type: in vivo, male Sprague Dawley rats; conditions: male, Sprague Dawley, plasma, oral 5 mg/kg vs IV 3 mg/kg
Experimental: Pharmacokinetic parameters and concepts are used in DMPK to describe the fate of a compound in the body. The distribution and excretion of a compound are reflected in the plasma concentration-time profile. By appropriate dosing, sampling and analysis key as parameters (clearance, volume, half-life, bioavailability etc.) can be determined.
Test compounds were typically dosed intravenously to the right lateral tail vein of male Sprague Dawley rats at a dose level of 3 mg/kg (1 ml/kg) in DMA:water (40:60 v/v). Rats were dosed orally at a dose level of 5 mg/kg (2 ml/kg) in 0.5% hydroxypropylmethylcellulose (HPMC, w/v)/0.1% Tween 80 (v/v) in water). […]
To determine the plasma levels of test compound, 50 μl of methanol was added to 50 μl of each of the test samples, whilst 40 μl of methanol was added to the 50 μl aliquots of control plasma containing 10 μl spikes of authentic standard used to create a calibration line and QCs. […] The resultant supernatants were analysed by HPLC-MSMS after an appropriate, selective and sensitive method had been created by optimizing both cone voltage and collision energy.
Pharmacokinetic parameters were derived from concentration-time using non-compartmental analysis in WinNonLin®. Bioavailability was calculated using the following equation F=AUCPO*DoseIV/AUCIV*DosePO.

primary rat hepatocytes = assay: In vitro phospholipidosis protocol (DHPE-TRITC accumulation); assay type: cell-based, Han Wistar rats
Experimental: Assessment of a compounds potential to induce phospholipidosis was determined by an in vitro fluorescent assay which reports the accumulation of phospholipids in primary rat hepatocytes. Hepatocytes were isolated from Han Wistar rats by a 2-stage collagenase digest method. The hepatocytes were then plated on collagen coated 96-well plates in William's E medium. The cells were left to adhere for 1 hour then the media was replaced with a solution of 250 μg.ml^−1 collagen in Hepatozyme cell culture medium.
Cells were then cultured for 48 hours with the medium being changed at 24 hours. At 48 hours post isolation the medium was changed to Hepatozyme supplemented with the fluorescent phospholipid N-(6-tetramethylrhodaminethiocarbamoyl)-1,2-dihexadecanoyl-sn-glycero-3-phosphoethanolamine (DHPE-TRITC) (5 μg.ml^−1). At this time, test compounds were added to the hepatocytes at a range of concentrations in a serial dilution with a final concentration of 0.4% dimethylsulfoxide (used as solvent for test compounds).
The cells were incubated for a further 24 hours and then fixed by addition of a phosphate buffered saline (PBS) solution containing the nuclear stain Hoechst 33342 (final concentration 2 μM) and paraformaldehyde solution (final concentration 4%). The plates were kept at room temperature for 30 minutes then washed three times in PBS solution.
Images of the hepatocytes were then acquired using an automated microscope platform (GE In Cell Analyser 3000). Image analysis algorithms were then used to assess cell viability and the accumulation of the DHPE-TRITC label within viable hepatocytes. The quantified accumulation observed with test compounds was then normalised to a range of 0, representing the accumulation observed in cells exposed to vehicle only, and 1, representing cells exposed to 10 μM amiodarone. The maximum accumulation across the dose response of the test compound, where cell viability is >50%, is reported, as is the dose at which this maximum was observed. The lowest dose that caused >50% cell toxicity is also reported. […]

[2] = Plasma protein binding (equilibrium dialysis); assay type: in vitro ADME; conditions: pH 7.4; human plasma, 37° C., 5 μM compound; read-out: human plasma protein binding (% bound) (converted)
Experimental: The extent of plasma protein binding was determined via equilibrium dialysis of a compound between human plasma and aqueous buffer at 37° C., and determination of the concentrations of compound in the plasma and buffer by HPLC-MS/MS.
Dialysis cells (molecular weight cut-off 5000) were prepared by rinsing with water followed by soaking in the dialysis buffer for a minimum of 1 hour. The dialysis buffer was isotonic buffered saline pH 7.4. Stock solutions of compound in dimethylsulfoxide were prepared at a concentration of 0.5 mM.
The stock DMSO solution of compound was added to the plasma at a ratio of 10 μl of DMSO to each ml of plasma. This gave a 1% DMSO in plasma solution with each compound at a concentration of 5 μM.
Dialysis cells were then prepared and one half of the cell filled with 750 μl of dialysis buffer and the other half of the cell with 750 μl of plasma solution of compound. […]
The samples were then analysed using HPLC-MS/MS. […]
The concentration of compound in the samples were determined using MassLynx version 4.1 software (produced by Waters/Micromass) that automatically calculated a calibration curve and interpolated the concentration of compound in the analytes. Plasma protein binding was determined from the measured concentration as the percentage of compound bound in plasma (% bound) using the following equation;

SMILES: O=C(NCC1(O)CCCCCC1)c1c(Cl)ccc2nc(N3CC[C@H](NCCO)C3)ccc12 [Example 1, 6-Chloro-N-[(1-hydroxycycloheptyl)methyl]-2-{(3S)-3-[(2-hydroxyethyl)amino]-pyrrolidin-1-yl}quinoline-5-carboxamide]
- IC50 (P2X7 receptor; 10^-5M bbATP, antagonist activity, read-out: P2X7 pIC50 (converted)): 3.98 nM
- IC50 (P2X7 receptor; bbATP, read-out: P2X7 IC50): ≤ 5 nM
- inhibition at 3 h (hERG): < 50%
- IC50 ([1]; radioligand competition binding): > 100000 nM
- P2X7:hERG Ratio [1]: >20,000
- P2X7:hERG Ratio ([1]; listed as compound according to the present invention): > 20,000
- bioavailability (Bioavailability - Rat PK): 14%
- maximum accumulation concentration (primary rat hepatocytes; dose at which maximum accumulation was observed): 71 µM
- minimum toxic concentration (primary rat hepatocytes; lowest dose that caused >50% cell toxicity): 198 µM
- maximum accumulation (phospholipidosis) (primary rat hepatocytes; relative to 10 μM amiodarone control (=1), vehicle = 0, cell viability >50%): 0.9
- fraction unbound at 5 µM [2]: 0.3
- melting point: 138 to 140 °C
